Publication PMC5775428, “Towards an experimental classification system for membrane active peptides” (Scientific Reports, 2018)
Where two headings read alike, the source gives them in different places.

Experiments:
[1] = system: Erwinia carotovora
In short: (§1)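 Peptides were serially diluted from 256 down to 0.5 μM and incubated with the bacterial strains according to CLSI M7-A10. Wells were then inspected by optical microscopy, and MIC assigned where no cells appeared.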

[2] = system: Pseudomonas aeruginosa
In short: as §1

[3] = system: Pseudomonas syringae pv. tabaci
In short: as §1

[4] = system: Bacillus subtilis; details: Bacillus subtilis; for Minimum inhibitory concentration, Average: average of triplicates
In short: as §1

[5] = system: Candida albicans; details: Candida albicans; for Minimum inhibitory concentration, Average: average of triplicates
In short: (§2)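 MICs determined per CLSI M7-A10 (bacteria) and M27-A3 (yeasts) protocols, peptides tested at 0.5 to 256 μM. MIC taken as the lowest concentration with no cells seen by optical microscopy; three biological repeats with 2 technical replicates each.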

[6] = system: Cryptococcus neoformans; details: Cryptococcus neoformans; for Minimum inhibitory concentration, Average: average of triplicates
In short: as §2

[7] = system: Escherichia coli
In short: as §1

[8] = system: Staphylococcus aureus
In short: as §1

[9] = system: Bacillus cereus
In short: as §1

[10] = system: Xanthomonas campestris; details: for Minimum inhibitory concentration, Average: average of triplicates
In short: as §1

[11] = cited from earlier work
[12] = cited from earlier work; remark: listed apart in the source
[13] = cited from earlier work; remark: listed apart in the source
[14] = cited from earlier work; remark: listed apart in the source
[15] = cited from earlier work; remark: listed apart in the source
[16] = cited from earlier work; remark: listed apart in the source
[17] = cited from earlier work; remark: listed apart in the source
[18] = cited from earlier work; remark: listed apart in the source
[19] = cited from earlier work; remark: listed apart in the source
[20] = cited from earlier work; remark: listed apart in the source
[21] = CLSI M27-A3, 0.5 to 256 μM tested, triplicate 1, also published in ref 7
[22] = Erwinia carotovora, CLSI M7-A10, triplicate 1
[23] = Erwinia carotovora, average of triplicates
[24] = Erwinia carotovora, triplicate 2
[25] = Erwinia carotovora, triplicate 3
[26] = Pseudomonas aeruginosa, CLSI M7-A10, triplicate 1
[27] = Pseudomonas aeruginosa, average of triplicates
[28] = Pseudomonas aeruginosa, triplicate 2
[29] = Pseudomonas aeruginosa, triplicate 3
[30] = Pseudomonas syringae pv. tabaci, CLSI M7-A10, triplicate 1
[31] = Pseudomonas syringae pv. tabaci, average of triplicates
[32] = Pseudomonas syringae pv. tabaci, triplicate 2
[33] = Pseudomonas syringae pv. tabaci, triplicate 3
[34] = Escherichia coli, CLSI M7-A10, triplicate 1
[35] = Escherichia coli, average of triplicates
[36] = Staphylococcus aureus, CLSI M7-A10, triplicate 1
[37] = Staphylococcus aureus, average of triplicates
[38] = Staphylococcus aureus, triplicate 2
[39] = Staphylococcus aureus, triplicate 3
[40] = Bacillus cereus, CLSI M7-A10, triplicate 1
[41] = Bacillus cereus, average of triplicates

IVNHLVKLFDKGLNSIVNLR [Tc05]
Minimum inhibitory concentration [1]: 512 µM
Minimum inhibitory concentration, Average [1]: 512.0 µM
Minimum inhibitory concentration [2]: 512 µM
Minimum inhibitory concentration, Average [2]: 512.0 µM
Minimum inhibitory concentration [3]: 512 µM
Minimum inhibitory concentration, Average [3]: 512.0 µM
Minimum inhibitory concentration ([4]; CLSI M7-A10, triplicate 1): 64 µM
Minimum inhibitory concentration, Average [4]: 64.0 µM
Minimum inhibitory concentration ([4]; triplicate 2): 64 µM
Minimum inhibitory concentration ([4]; triplicate 3): 64 µM
Minimum inhibitory concentration [5, 21]: 128 µM
Minimum inhibitory concentration, Average [5]: 128.0 µM
Minimum inhibitory concentration ([5]; triplicate 2): 128 µM
Minimum inhibitory concentration ([5]; triplicate 3): 128 µM
Minimum inhibitory concentration ([6]; CLSI M27-A3, triplicate 1): 128 µM
Minimum inhibitory concentration, Average [6]: 128.0 µM
Minimum inhibitory concentration ([6]; triplicate 2): 128 µM
Minimum inhibitory concentration ([6]; triplicate 3): 128 µM
Minimum inhibitory concentration [7]: 512 µM
Minimum inhibitory concentration, Average [7]: 512.0 µM
Minimum inhibitory concentration [8]: 512 µM
Minimum inhibitory concentration, Average [8]: 512.0 µM
Minimum inhibitory concentration [9]: 512 µM
Minimum inhibitory concentration, Average [9]: 512.0 µM
Minimum inhibitory concentration ([10]; CLSI M7-A10, triplicate 1): 512 µM
Minimum inhibitory concentration, Average [10]: 512.0 µM
Minimum inhibitory concentration ([10]; triplicate 2): 512 µM
Minimum inhibitory concentration ([10]; triplicate 3): 512 µM

KVLSKVHTLLKAVLAL [At02]
Minimum inhibitory concentration [1, 22]: 1 µM
Minimum inhibitory concentration, Average [1, 23]: 1.0 µM
Minimum inhibitory concentration [1, 24]: 1 µM
Minimum inhibitory concentration [1, 25]: 1 µM
Minimum inhibitory concentration [2, 26]: 4 µM
Minimum inhibitory concentration, Average [2, 27]: 5.3 µM
Minimum inhibitory concentration [2, 28]: 4 µM
Minimum inhibitory concentration [2, 29]: 8 µM
Minimum inhibitory concentration [3, 30]: 4 µM
Minimum inhibitory concentration, Average [3, 31]: 4.0 µM
Minimum inhibitory concentration [3, 32]: 4 µM
Minimum inhibitory concentration [3, 33]: 4 µM
Minimum inhibitory concentration ([4]; CLSI M7-A10, triplicate 1): 1 µM
Minimum inhibitory concentration, Average [4]: 1.0 µM
Minimum inhibitory concentration ([4]; triplicate 2): 1 µM
Minimum inhibitory concentration ([4]; triplicate 3): 1 µM
Minimum inhibitory concentration [5, 21]: 8 µM
Minimum inhibitory concentration, Average [5]: 8.0 µM
Minimum inhibitory concentration ([5]; triplicate 2): 8 µM
Minimum inhibitory concentration ([5]; triplicate 3): 8 µM
Minimum inhibitory concentration ([6]; CLSI M27-A3, triplicate 1): 4 µM
Minimum inhibitory concentration, Average [6]: 4.0 µM
Minimum inhibitory concentration ([6]; triplicate 2): 4 µM
Minimum inhibitory concentration ([6]; triplicate 3): 4 µM
Minimum inhibitory concentration [7, 34]: 2 µM
Minimum inhibitory concentration, Average [7, 35]: 2.0 µM
Minimum inhibitory concentration ([7]; Escherichia coli, triplicate 2): 2 µM
Minimum inhibitory concentration ([7]; Escherichia coli, triplicate 3): 2 µM
Minimum inhibitory concentration [8, 36]: 4 µM
Minimum inhibitory concentration, Average [8, 37]: 4.0 µM
Minimum inhibitory concentration [8, 38]: 4 µM
Minimum inhibitory concentration [8, 39]: 4 µM
Minimum inhibitory concentration [9, 40]: 2 µM
Minimum inhibitory concentration, Average [9, 41]: 3.3 µM
Minimum inhibitory concentration ([9]; Bacillus cereus, triplicate 2): 4 µM
Minimum inhibitory concentration ([9]; Bacillus cereus, triplicate 3): 4 µM
Minimum inhibitory concentration ([10]; CLSI M7-A10, triplicate 1): 1 µM
Minimum inhibitory concentration, Average [10]: 1.0 µM
Minimum inhibitory concentration ([10]; triplicate 2): 1 µM
Minimum inhibitory concentration ([10]; triplicate 3): 1 µM

LHRLVKLVAALLRGYASKVDTH [Tc08]
Minimum inhibitory concentration [1, 22]: 2 µM
Minimum inhibitory concentration, Average [1, 23]: 3.3 µM
Minimum inhibitory concentration [1, 24]: 4 µM
Minimum inhibitory concentration [1, 25]: 4 µM
Minimum inhibitory concentration [2, 26]: 4 µM
Minimum inhibitory concentration, Average [2, 27]: 4.0 µM
Minimum inhibitory concentration [2, 28]: 4 µM
Minimum inhibitory concentration [2, 29]: 4 µM
Minimum inhibitory concentration [3, 30]: 4 µM
Minimum inhibitory concentration, Average [3, 31]: 4.0 µM
Minimum inhibitory concentration [3, 32]: 4 µM
Minimum inhibitory concentration [3, 33]: 4 µM
Minimum inhibitory concentration ([4]; CLSI M7-A10, triplicate 1): 2 µM
Minimum inhibitory concentration, Average [4]: 2.0 µM
Minimum inhibitory concentration ([4]; triplicate 2): 2 µM
Minimum inhibitory concentration ([4]; triplicate 3): 2 µM
Minimum inhibitory concentration [5, 21]: 4 µM
Minimum inhibitory concentration, Average [5]: 4.0 µM
Minimum inhibitory concentration ([5]; triplicate 2): 4 µM
Minimum inhibitory concentration ([5]; triplicate 3): 4 µM
Minimum inhibitory concentration ([6]; CLSI M27-A3, triplicate 1): 8 µM
Minimum inhibitory concentration, Average [6]: 8.0 µM
Minimum inhibitory concentration ([6]; triplicate 2): 8 µM
Minimum inhibitory concentration ([6]; triplicate 3): 8 µM
Minimum inhibitory concentration [7, 34]: 2 µM
Minimum inhibitory concentration, Average [7, 35]: 2.0 µM
Minimum inhibitory concentration ([7]; Escherichia coli, triplicate 2): 2 µM
Minimum inhibitory concentration ([7]; Escherichia coli, triplicate 3): 2 µM
Minimum inhibitory concentration [8, 36]: 2 µM
Minimum inhibitory concentration, Average [8, 37]: 2.0 µM
Minimum inhibitory concentration [8, 38]: 2 µM
Minimum inhibitory concentration [8, 39]: 2 µM
Minimum inhibitory concentration [9, 40]: 4 µM
Minimum inhibitory concentration, Average [9, 41]: 6.7 µM
Minimum inhibitory concentration ([9]; Bacillus cereus, triplicate 2): 8 µM
Minimum inhibitory concentration ([9]; Bacillus cereus, triplicate 3): 8 µM
Minimum inhibitory concentration ([10]; CLSI M7-A10, triplicate 1): 4 µM
Minimum inhibitory concentration, Average [10]: 4.0 µM
Minimum inhibitory concentration ([10]; triplicate 2): 4 µM
Minimum inhibitory concentration ([10]; triplicate 3): 4 µM

Penetratin
Tm sharp component, 2:1 DMPC:DMPG LUVs [11]: 24.5 °C
Hv broad component, 2:1 DMPC:DMPG LUVs [12]: 116000
H broad component, DMPC LUVs [13]: 2890 kcal/mol
Hv broad component, DMPC LUVs [14]: 295000
Tm broad component, DMPC LUVs [15]: 23.5 °C
Tm sharp component, DMPC LUVs [16]: 24.2 °C
Tm broad component, 2:1 DMPC:DMPG LUVs [17]: 26.6 °C
H sharp component, 2:1 DMPC:DMPG LUVs [18]: 3360 kcal/mol
Hv sharp component, DMPC LUVs [19]: 1.01e+06
H broad component, 2:1 DMPC:DMPG LUVs [20]: 2560 kcal/mol

Syphaxin
Tm sharp component, 2:1 DMPC:DMPG LUVs [11]: 22.8 °C
Hv broad component, 2:1 DMPC:DMPG LUVs [12]: 101000
H broad component, DMPC LUVs [13]: 2260 kcal/mol
Hv broad component, DMPC LUVs [14]: 120000
Tm broad component, DMPC LUVs [15]: 25.4 °C
Tm sharp component, DMPC LUVs [16]: 21.9 °C
Tm broad component, 2:1 DMPC:DMPG LUVs [17]: 25.4 °C
H sharp component, 2:1 DMPC:DMPG LUVs [18]: 197 kcal/mol
Hv sharp component, DMPC LUVs [19]: 383000
H broad component, 2:1 DMPC:DMPG LUVs [20]: 3240 kcal/mol
